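Values below derive from 48-hour exposures of cells grown in 96-well plates, with endpoints linearly interpolated between the two concentrations bracketing the appropriate inhibition level. GI50 is the concentration that inhibits growth by half. TGI: concentration producing complete growth inhibition.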
Assays:
Assay in all cases: NCI tumour cell line growth inhibition, 48 h
[1] = tested on: HCT-15 colon
[2] = tested on: HS 578T breast
[3] = tested on: PC-3 prostate
[4] = tested on: SK-MEL-5 melanoma
[5] = tested on: SN12C renal
[6] = tested on: MALME-3M melanoma
[7] = tested on: K-562 leukemia
[8] = tested on: SW-620 colon
[9] = tested on: SK-MEL-2 melanoma
[10] = tested on: CCRF-CEM leukemia
[11] = tested on: HCC-2998 colon
[12] = tested on: OVCAR-8 ovarian
[13] = tested on: HT29 colon
[14] = tested on: TK-10 renal
[15] = tested on: UACC-62 melanoma
[16] = tested on: T-47D breast
[17] = tested on: UO-31 renal
[18] = tested on: OVCAR-3 ovarian
[19] = tested on: RXF 393 renal
[20] = tested on: NCI/ADR-RES ovarian
[21] = tested on: NCI-H460 lung
[22] = tested on: A549 NSCLC
[23] = tested on: SR leukemia
[24] = tested on: MDA-MB-231 breast
[25] = tested on: M14 melanoma
[26] = tested on: SK-OV-3 ovarian
[27] = tested on: A498 renal
[28] = tested on: NCI-H23 lung
[29] = tested on: MCF7 breast
[30] = tested on: KM12 colon
[31] = tested on: LOX IMVI melanoma
[32] = tested on: OVCAR-5 ovarian
[33] = tested on: HL-60(TB) leukemia
[34] = tested on: U251 CNS
[35] = tested on: OVCAR-4 ovarian
[36] = tested on: SNB-19 CNS
[37] = tested on: 786-0 renal
[38] = tested on: NCI-H522 lung
[39] = tested on: HCT-116 colon
[40] = tested on: ACHN renal
[41] = tested on: DU-145 prostate
[42] = tested on: UACC-257 melanoma
[43] = tested on: SNB-75 CNS
[44] = tested on: SF-268 CNS
[45] = tested on: CAKI-1 renal
[46] = tested on: MOLT-4 leukemia
[47] = tested on: SF-539 CNS
[48] = tested on: EKVX NSCLC
[49] = tested on: HOP-92 NSCLC
[50] = tested on: COLO 205 colon
[51] = tested on: BT-549 breast
[52] = tested on: SF-295 CNS
[53] = tested on: IGROV1 ovarian
[54] = tested on: SK-MEL-28 melanoma
[55] = tested on: RPMI-8226 leukemia
[56] = tested on: MDA-MB-435
[57] = tested on: HOP-62 NSCLC
[58] = tested on: NCI-H226 lung

Nc1nonc1-c1nc2cnccc2n1C1CC1
GI50 [1]: 6.61 µM | TGI [1]: > 25 µM | GI50 [2]: 1.16 µM | TGI [2]: 9.54 µM | GI50 [3]: 17.7 µM | TGI [3]: > 25 µM | GI50 [4]: 5.81 µM | TGI [4]: > 19 µM | GI50 [5]: 7.03 µM | TGI [5]: > 25 µM | GI50 [6]: > 15.9 µM | TGI [6]: > 25 µM | GI50 [7]: > 21 µM | TGI [7]: > 25 µM | GI50 [8]: 5.42 µM | TGI [8]: > 25 µM | GI50 [9]: 5.35 µM | TGI [9]: > 21.7 µM | GI50 [10]: 7.99 µM | TGI [10]: > 25 µM | GI50 [11]: 12.4 µM | TGI [11]: > 25 µM | GI50 [12]: 6.83 µM | TGI [12]: > 25 µM | GI50 [13]: 5.87 µM | TGI [13]: > 25 µM | GI50 [14]: 0.636 µM | TGI [14]: > 20.3 µM | GI50 [15]: 7.59 µM | TGI [15]: > 25 µM | GI50 [16]: 5.7 µM | TGI [16]: > 22.3 µM | GI50 [17]: 2.09 µM | TGI [17]: > 25 µM | GI50 [18]: 7.55 µM | TGI [18]: > 25 µM | GI50 [19]: 1.2 µM | TGI [19]: 6.92 µM | GI50 [20]: 10.6 µM | TGI [20]: > 25 µM | GI50 [21]: 6.83 µM | TGI [21]: > 25 µM | GI50 [22]: 6.39 µM | TGI [22]: > 25 µM | GI50 [23]: 3.81 µM | TGI [23]: 15 µM | GI50 [24]: 8.75 µM | TGI [24]: > 25 µM | GI50 [25]: 14.1 µM | TGI [25]: > 25 µM | GI50 [26]: 4.36 µM | TGI [26]: 18.4 µM | GI50 [27]: 1.97 µM | TGI [27]: 8.77 µM | GI50 [28]: 7.3 µM | TGI [28]: > 25 µM | GI50 [29]: 6.05 µM | TGI [29]: > 17.3 µM | GI50 [30]: 6.46 µM | TGI [30]: > 20.9 µM | GI50 [31]: 6.54 µM | TGI [31]: > 18 µM | GI50 [32]: 5.14 µM | TGI [32]: > 25 µM | GI50 [33]: 5.32 µM | TGI [33]: 14.6 µM | GI50 [34]: 9.09 µM | TGI [34]: > 25 µM | GI50 [35]: 7.4 µM | TGI [35]: > 25 µM | GI50 [36]: 12 µM | TGI [36]: > 25 µM | GI50 [37]: 5.44 µM | TGI [37]: > 25 µM | GI50 [38]: 3.43 µM | TGI [38]: 13.2 µM | GI50 [39]: 5.62 µM | TGI [39]: > 25 µM | GI50 [40]: 6.25 µM | TGI [40]: > 25 µM | GI50 [41]: 10.6 µM | TGI [41]: > 25 µM | GI50 [42]: 18.1 µM | TGI [42]: > 25 µM | GI50 [43]: 3.02 µM | TGI [43]: > 18.5 µM | GI50 [44]: 4.98 µM | TGI [44]: > 25 µM | GI50 [45]: 1.45 µM | TGI [45]: > 25 µM | GI50 [46]: 12.1 µM | TGI [46]: > 25 µM | GI50 [47]: 2.54 µM | TGI [47]: 10.1 µM | GI50 [48]: 1.63 µM | TGI [48]: > 25 µM | GI50 [49]: 0.502 µM | TGI [49]: > 25 µM | GI50 [50]: 4.52 µM | TGI [50]: > 14.4 µM | GI50 [51]: 3.85 µM | TGI [51]: 19.2 µM | GI50 [52]: 7.38 µM | TGI [52]: > 25 µM | GI50 [53]: 8.76 µM | TGI [53]: > 25 µM | GI50 [54]: 8.47 µM | TGI [54]: > 20.9 µM | GI50 [55]: 6.46 µM | TGI [55]: 24.4 µM | GI50 [56]: 11.2 µM | TGI [56]: > 25 µM | GI50 [57]: 5.33 µM | TGI [57]: > 16.8 µM | GI50 [58]: 0.739 µM | TGI [58]: > 14.6 µM

Cn1c(-c2c(N)n(Nc3cccc(Cl)c3)c3nc(C#N)c(C#N)nc23)nc2ccccc21
GI50 [1]: 3.45 µM | TGI [1]: 17.2 µM | GI50 [2]: 7.26 µM | TGI [2]: 30.1 µM | GI50 [3]: 10.5 µM | TGI [3]: 33.9 µM | GI50 [4]: 7.41 µM | TGI [4]: 16.6 µM | GI50 [5]: 5.15 µM | TGI [5]: 12.5 µM | GI50 [7]: 5.43 µM | TGI [7]: 25.5 µM | GI50 [8]: 7.94 µM | TGI [8]: > 50 µM | GI50 [9]: 5.85 µM | TGI [9]: 18.9 µM | GI50 [10]: 23.5 µM | TGI [10]: > 50 µM | GI50 [11]: 6.95 µM | TGI [11]: 16.9 µM | GI50 [12]: 7.56 µM | TGI [12]: 26.4 µM | GI50 [14]: 12.9 µM | TGI [14]: > 50 µM | GI50 [15]: 4.59 µM | TGI [15]: 14.9 µM | GI50 [16]: 13.2 µM | TGI [16]: > 50 µM | GI50 [17]: 3.74 µM | TGI [17]: 11.3 µM | GI50 [18]: 6.96 µM | TGI [18]: 33.5 µM | GI50 [19]: 0.0138 µM | TGI [19]: 3.54 µM | GI50 [20]: 0.837 µM | TGI [20]: 14.1 µM | GI50 [21]: 13.3 µM | TGI [21]: > 50 µM | GI50 [22]: 10.9 µM | TGI [22]: 35.4 µM | GI50 [23]: 2.53 µM | TGI [23]: 41.4 µM | GI50 [24]: 6.47 µM | TGI [24]: 17.7 µM | GI50 [25]: 6.51 µM | TGI [25]: 20 µM | GI50 [26]: 13.4 µM | TGI [26]: 43 µM | GI50 [27]: 6.56 µM | TGI [27]: 16.6 µM | GI50 [28]: 2.88 µM | TGI [28]: 13.2 µM | GI50 [29]: 4.96 µM | TGI [29]: > 50 µM | GI50 [30]: 9.57 µM | TGI [30]: 26.1 µM | GI50 [31]: 5.25 µM | TGI [31]: 11.5 µM | GI50 [33]: 8.19 µM | TGI [33]: > 50 µM | GI50 [34]: 7.92 µM | TGI [34]: 15.3 µM | GI50 [35]: 1.36 µM | TGI [35]: 16.4 µM | GI50 [36]: 10.7 µM | TGI [36]: 24.3 µM | GI50 [37]: 8.91 µM | TGI [37]: 37.3 µM | GI50 [38]: 1.06 µM | TGI [38]: 8.19 µM | GI50 [39]: 8.54 µM | TGI [39]: > 50 µM | GI50 [40]: 5.44 µM | TGI [40]: 15 µM | GI50 [41]: 6.46 µM | TGI [41]: 15.4 µM | GI50 [42]: 6.18 µM | TGI [42]: 15.9 µM | GI50 [43]: 8.33 µM | TGI [43]: 35.1 µM | GI50 [44]: 10 µM | TGI [44]: 35.6 µM | GI50 [45]: 7.29 µM | TGI [45]: 43.2 µM | GI50 [46]: > 50 µM | TGI [46]: > 50 µM | GI50 [47]: 1.38 µM | TGI [47]: 10.3 µM | GI50 [48]: 0.839 µM | TGI [48]: 7.45 µM | GI50 [49]: 16.5 µM | TGI [49]: > 50 µM | GI50 [50]: 6.35 µM | TGI [50]: 18.2 µM | GI50 [51]: 0.0816 µM | TGI [51]: 1.97 µM | GI50 [52]: 11 µM | TGI [52]: 27.8 µM | GI50 [53]: 1.27 µM | TGI [53]: 12.6 µM | GI50 [54]: 6.99 µM | TGI [54]: 24.4 µM | GI50 [55]: 3.53 µM | TGI [55]: > 50 µM | GI50 [56]: 3.28 µM | TGI [56]: 14 µM | GI50 [57]: 15.6 µM | TGI [57]: 43.4 µM
